Experimental data taken from patent publication US20090233848A1, “Pea15 as a Tumor Suppressor Gene” (priority 2004, published 2009).

System: MDA-MB-361 tumor xenografts
Experiment: Tumor growth in HER2-overexpressing MDA-MB-361 breast cancer xenograft model
Type: in vivo, nude mice
Settings: 20 μg DNA; paclitaxel 15 mg/kg i.p.; compared with LPD-Luciferase
Description: Female nude mice were inoculated with HER2-overexpressing MDA-MB-361 cells in the mammary fat pad. After the formation of 8-10 tumors per group (5 animals per group, -2 tumors per animal), mice were given one of the following treatments: naked E1A DNA (20 μg DNA, light circles), vehicle only (small squares), LPD-luciferase (20 μg DNA, triangles), LPD-E1A (20 μg DNA, dark circles), paclitaxel (15 mg/kg, light triangles), or LPD-E1A (20 μg DNA) plus paclitaxel (15 mg/kg) (large squares). The tumor growth ratio was determined by comparing the size of the treated tumors with the size of the original tumor before any treatment. The error bars indicate s.e.m.

For CC(=O)O[C@H]1C(=O)[C@@]2(C)[C@H]([C@H](OC(=O)c3ccccc3)[C@]3(O)C[C@H](OC(=O)[C@H](O)[C@@H](NC(=O)c4ccccc4)c4ccccc4)C(C)=C1C3(C)C)[C@]1(OC(C)=O)CO[C@@H]1C[C@@H]2O [paclitaxel], the tumor growth was “decreased tumor growth”.
